# Values joined by “and” are separate entries in the source; they are usually repeats but may differ in a detail not shown here. Equal values may be shown once.
# Key:
# [1] = system: MDA-MB-231 cells; assay: Uptake and release by flow cytometry; format: cell-based, human
# Excerpt: Additionally, uptake and release data were obtained for DOX, DOXSF, and DOX-TEG-TAM in estrogen receptor-negative MDA-MB-435 and MDA-MB-231 cells. In both cell lines DOX-TEG-TAM was also taken up to a much greater extent than DOX and DOXSF. In MDA-MB-435 cells DOX-TEG-TAM was taken up 3-fold and 5-fold more than DOXSF and DOX, respectively. In MDA-MB-23 1 cells DOX-TEG-TAM was taken up 2-fold and 6-fold more than DOXSF and DOX, respectively.
# (§1) Uptake and release of DOX, DOXSF, and DOX-TEG-TAM: The uptake and release of DOX-TEG-TAM in breast cancer cells relative to DOX and untargeted DOXSF was performed as described with modifications. Breast cancer cells in log phase growth were dissociated with trypsin-EDTA, counted, resuspended in media at 1.5×10^5 cells/mL, and plated into six well plates (450,000 cells/well) and allowed to adhere overnight. The cells were treated with 0.5 μM DOX, DOXSF, or DOX-TEG-TAM for various amounts of time (20 min, 40 min, and 60 min). Drug treatment was accomplished by addition of 30 μL of 100× drug solution (50 μM) to 3 mL of media which was mixed and immediately added to the cells. For each time point, the media was removed, cells were trypsinized, and trypsinization was quenched with 3 mL phenol red-free RPMI 1640 media (no serum) at 4° C. Cells were pelleted by centrifugation at 300 g for 5 min at 10° C. The supernatant was decanted and the cells were re-suspended in 1 mL serum- and phenol red-free RPMI 1640 media and placed on ice.
# For drug retention samples, the cells were treated for 1 h with 0.5 μM DOX, DOXSF, or DOX-TEG-TAM. Following drug treatment, the media was removed and replaced with 3 mL fresh, 37° C., full (containing serum and phenol red indicator) cell media and the cells were incubated for various times (0.5 h, 1 h, 3 h, and 6 h). Following the allotted release times, the cells were prepared as described above. Drug treatment was performed such that all cell samples would be prepared within 2 h.
# (§2) The extent of drug uptake and retention was measured by flow cytometry. Cells were analyzed with excitation at 488 nm (15 mW Ar ion laser), with emission monitored between 570 and 600 nm. Instrument settings were optimized for each cell line and held constant for all experiments; 10,000 cells were analyzed for anthracycline fluorescence. The data are presented as the mean fluorescence for each condition with the background, drug-free cell fluorescence subtracted.
# [2] = Tolerance, acute toxicity and efficacy in mice; conditions: preliminary mouse in vivo formulation experiments
# [3] = target: T1, estrogen receptor (Homo sapiens, UniProt P03372); assay: Estrogen receptor competitive binding assay (3H-E2, MCF-7 cell lysate)
# T1 construct: endogenous in cells; host or cells: MCF-7 cells (ATCC); 225,000 g supernatant of sonicated lysate
# T1 sequence (P03372 whole entry): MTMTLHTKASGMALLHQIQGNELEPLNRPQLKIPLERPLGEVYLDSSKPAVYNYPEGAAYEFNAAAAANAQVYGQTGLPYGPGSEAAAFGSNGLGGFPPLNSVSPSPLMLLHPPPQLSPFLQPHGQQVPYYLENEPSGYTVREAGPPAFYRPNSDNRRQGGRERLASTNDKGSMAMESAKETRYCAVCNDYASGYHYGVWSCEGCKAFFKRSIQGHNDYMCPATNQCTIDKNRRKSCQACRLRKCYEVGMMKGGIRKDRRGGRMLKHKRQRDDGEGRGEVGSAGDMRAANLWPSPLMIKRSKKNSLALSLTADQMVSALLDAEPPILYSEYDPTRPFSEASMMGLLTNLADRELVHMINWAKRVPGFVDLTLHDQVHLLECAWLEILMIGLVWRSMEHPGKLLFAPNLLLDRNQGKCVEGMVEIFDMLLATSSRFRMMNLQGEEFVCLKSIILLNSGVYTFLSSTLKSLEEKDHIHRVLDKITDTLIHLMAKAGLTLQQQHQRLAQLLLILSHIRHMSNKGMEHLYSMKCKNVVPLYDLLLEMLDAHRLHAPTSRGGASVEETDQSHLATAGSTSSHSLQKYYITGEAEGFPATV
# [4] = system: Rtx-6 cells; assay: Uptake and estradiol competition by flow cytometry; format: cell-based
# Procedure: The uptake and release in Rtx-6 cells were also investigated. Rtx-6 cells were treated with DOX, DOXSF, or DOX-TEG-TAM as described above to determine both the uptake and the release of drug following a 1 h treatment. DOX-TEG-TAM was taken up to a greater extent than DOX (>3-fold) and DOXSF (>2-fold). The enhanced uptake relative to DOX and DOXSF could be attributed to the presence of ER and the lipophilicity of DOX-TEG-TAM. The uptake of DOX-TEG-TAM in Rtx-6 cells is perhaps best compared to the uptake in the parent MCF-7 cell line. DOX-TEG-TAM was taken up to a greater extent in MCF-7 cells (25 RFU) relative to Rtx-6 cells (14 RFU). One possible explanation for this difference is the presence of both AEBS and ER in MCF-7 cells versus only ER in Rtx-6 cells. […] No further inhibition occurs at higher concentrations, possibly because of non-specific binding of DOX-TEG-TAM at hydrophobic sites in Rtx-6 cells.
# as §1, §2
# The cell samples were prepared and analyzed by flow cytometry as described above.
# [5] = cell line not stated; cited from earlier work
# [6] = Hydrolysis of anthracycline-formaldehyde N-Mannich bases followed by HPLC
# Procedure: The area under the curve for the N-Mannich base was determined at each time point and was used to establish the kinetics of decomposition, using regression software. Hydrolysis of AOM-doxsaliform was carried out in pH 8.0 100 mM sodium phosphate buffer at 37° C. AOM-doxsaliform was dissolved in 48.0 μL DMSO and this solution was diluted into phosphate buffer to give 4.8 mL of an […] solution containing 1% DMSO. To this solution was added 6 μL of pig liver esterase (0.8 units/μL; Sigma; Milwaukee, Wis.) to achieve a final concentration of 1.0 units/mL. […] Brief centrifugation served to pellet the insoluble fraction. The drug solution was then transferred to a round bottom flask and concentrated by brief rotary-evaporation at 20° C. Reverse phase HPLC was used to analyze the extent of hydrolysis.
# Hydrolysis of the N-Mannich bases, prepared from either doxorubicin or daunorubicin and the respective amides, at 37° C. in pH 7.4 triethylammonium acetate (TEAA) buffer (20 mM) containing 10-30% MeOH was monitored by reverse phase HPLC. […] Identification of a less robust construct that could be used to rapidly deliver the active Schiff base metabolite of doxorubicin to a growing tumor was undertaken.
# [7] = system: PC3/AR and PC3/neo cells; conditions: 3 h treatment / over time
# Procedure: The fluorescence of doxorubicin can be monitored in order to determine the rate of uptake and intracellular distribution of the anthraquinone fluorophore.
# This cell suspension was dispensed in 2 mL aliquots into 6-well tissue culture plates. Plates were then incubated for 36 h at 37° C. in a humidified atmosphere of 5% CO2 and 95% air. The medium was replaced with 1 mL of phenol red-free RPMI 1640 growth medium supplemented with 10% dextran-coated charcoal stripped FBS prior to addition of the test compound. The appropriate compound was dissolved in DMSO and the concentration was adjusted to 50-200 μM by measuring the solution absorbance at 480 nm. Addition of 10 μL of the appropriate doxorubicin or prodrug solution was followed by incubation at 37° C. as indicated. The drug solution in individual wells was removed at the appropriate time and the cells were washed with 1 mL of the phenol red-free growth medium. The washed cells were then supplemented with 1 mL of phenol-red free growth medium for imaging.
structure (smiles),measurement,setting,value
"CC/C(=C(/c1ccc(O)cc1)c1ccc(OCCN(C)CCOCCOCCO/N=C/c2ccc(O)c(C(=O)NCN[C@H]3C[C@H](O[C@H]4C[C@](O)(C(=O)CO)Cc5c(O)c6c(c(O)c54)C(=O)c4c(OC)cccc4C6=O)O[C@@H](C)[C@H]3O)c2)cc1)c1ccccc1 [11c, E/Z-N-(2-Hydroxy-5-{[2-(2-{2-[(2-{4-[1-(4-hydroxy-phenyl)-2-phenyl-but-1-enyl]-phenoxy}-ethyl)-methyl-amino]-ethoxy}-ethoxy)-ethoxyimino]-methyl}-benzamide)-doxorubicin]",fold uptake more than DOX,[1]; MDA-MB-231,6 fold
same,fold uptake more than DOXSF,[1]; MDA-MB-231,2 fold
same,uptake relative to MDA-MB-435 cells,"[1]; MDA-MB-231, 1 h, 500 nM",about 25%
same,fluorophore retention vs DOXSF or DOX,"[1]; MDA-MB-231, after 1 h treatment with 500 nM",retained to a greater extent
same,acute toxicity,[2],substantially less than that of doxoform
same,estrogen receptor binding affinity retained relative to targeting group alone,[3],2.5%
same,RBA^OHT,[3]; relative to E/Z-4-OHT = 100,2.5
same,fold uptake greater than DOX,[4]; Rtx-6,> 3 fold
same,fold uptake greater than DOXSF,[4]; Rtx-6,> 2 fold
same,inhibition of uptake by estradiol,"[4]; Rtx-6, 0.5 μM drug, 20 nM estradiol",70%
same,drug uptake (DOX fluorophore),"[4]; Rtx-6, 1 h treatment",14 RFU
"COc1cccc2c1C(=O)c1c(O)c3c(c(O)c1C2=O)C[C@@](O)(C(=O)CO)C[C@@H]3O[C@H]1C[C@H](NCNC(=O)c2ccccc2O)[C@H](O)[C@H](C)O1 [doxsaliform, N-(2-Hydroxybenzamido-methyl)-doxorubicin]",IC50,[5],60 nM and 50 nM
same,estimated pKa of the amino moiety,[6],3.0-3.5
same,storage stability of lyopholyzed salts,[6]; −20° C.,stable at −20 °C for periods of several months
same,decomposition of the free base on storage,"[6]; −20° C., after 3 weeks",~20%
same,intracellular distribution of fluorescence over time,[7],exclusive nuclear accumulation of fluorescence

# From patent US20070275911A1, “Targeted Drug-Formaldehyde Conjugates and Methods of Making and Using the Same” (priority 2003, published 2007)
